Experimental data as given in US12194051B2, “5-azaindazole derivatives as adenosine receptor antagonists” (MERCK PATENT GMBH, priority 2018, dated 2025).

Columns and labels:
Format in all cases: cell-based
human A2A receptors = molecular target: T1, human A2A receptors (Homo sapiens, UniProt P29274); assay: Inhibition of human A2A receptor in recombinant HEK293 cells, cAMP quantification (HTRF); settings: read-out: A2A (Category)
T1 construct: expressed in transfected cells; host or cells: HEK293
T1 sequence (P29274 whole entry): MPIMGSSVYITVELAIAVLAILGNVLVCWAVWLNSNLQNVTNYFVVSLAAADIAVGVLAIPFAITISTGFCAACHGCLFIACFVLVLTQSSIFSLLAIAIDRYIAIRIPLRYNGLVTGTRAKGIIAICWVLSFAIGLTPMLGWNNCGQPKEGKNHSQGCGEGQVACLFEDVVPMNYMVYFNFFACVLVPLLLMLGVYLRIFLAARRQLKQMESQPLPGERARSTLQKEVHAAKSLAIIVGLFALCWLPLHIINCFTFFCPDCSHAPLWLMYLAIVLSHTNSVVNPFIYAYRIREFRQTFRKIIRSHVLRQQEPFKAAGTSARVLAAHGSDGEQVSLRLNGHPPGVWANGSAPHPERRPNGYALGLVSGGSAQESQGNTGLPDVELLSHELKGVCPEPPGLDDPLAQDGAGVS
In short: (§1)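 Adenosine receptor activity tracked via second-messenger cAMP; incubation 15 min, then HTRF detection of cellular cAMP.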

human A2B receptors = molecular target: T2, human A2B receptors (Homo sapiens, UniProt P29275); assay: Inhibition of human A2B receptor in recombinant HEK293 cells, cAMP quantification (HTRF); settings: read-out: A2B (Category)
T2 construct: expressed in transfected cells; host or cells: HEK293
T2 sequence (P29275 1-332): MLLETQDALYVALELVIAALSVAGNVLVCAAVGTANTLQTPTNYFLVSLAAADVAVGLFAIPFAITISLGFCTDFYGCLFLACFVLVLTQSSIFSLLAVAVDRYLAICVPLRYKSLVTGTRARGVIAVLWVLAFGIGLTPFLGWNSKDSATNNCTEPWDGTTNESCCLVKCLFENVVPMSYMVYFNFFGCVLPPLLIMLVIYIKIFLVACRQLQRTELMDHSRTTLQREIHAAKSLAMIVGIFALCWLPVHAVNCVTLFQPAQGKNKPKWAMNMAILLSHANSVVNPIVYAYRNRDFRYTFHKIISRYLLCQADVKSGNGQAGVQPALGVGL
In short: as §1

mouse Pan T cells = assay: Mouse T cell IL-2 rescue from NECA inhibition (ELISA); settings: 24 h
Description: Adenosine (Ado) in tumor microenvironment can inhibit T cell activity by signaling through A2A receptors and suppress cytokine secretion by T cells. […] Potential A2A antagonists or A2A/A2B dual antagonists can rescue T cells from this inhibition. Herein, we describe the in vitro system we established using Pan T cells from mouse spleens to screen potential A2A antagonists or A2A/A2B dual antagonists for their activity. The method described involves the use of CD3/CD28 pre-coated beads to stimulate Pan T cells purified from mouse splenocytes, combined with the addition of A2A agonist along with potential A2A or A2A/A2B dual antagonists to evaluate potentiation of T cell cytokine production.
Briefly, mouse Pan T cells are purified from spleens of BALB/c mice using Pan T cell isolation kit Mouse II (MACS Miltenyi biotech Cat # Order no. 130-095-130) according to manufacturer's protocol. […] After 24 h incubation IL-2 levels in the supernatants are measured by ELISAs according to manufacturer's protocol (R&D systems Cat # DY402 (IL-2)). Once the concentrations are calculated, the difference of cytokine concentration of DMSO control and agonist alone control is calculated and the percentage of rescue by each concentration of antagonist is calculated by using Microsoft Excel. […]

[1] = molecular target: T3, endogenous human A2A receptor (Homo sapiens, UniProt P29274); assay: Human T cell assay, endogenous A2A receptor, cAMP quantification
T3 construct: The endogenous functional activity of the Gs-coupled human A2A receptor was measured in T cells; endogenous in cells; host or cells: human pan T cells isolated from PBMC of fresh whole blood
T3 sequence (P29274 whole entry): as the sequence (P29274 whole entry) above
Procedure: The endogenous functional activity of the Gs-coupled human A2A receptor was measured in T cells, where this receptor is highly expressed. Determination of receptor activity was done by quantification of cAMP, which is a second messenger for adenosine receptors.
In short, human pan T cells were isolated from human PBMC (MACS Pan T Cell Isolation Kit, Miltenyi Biotec) that have been derived from fresh whole blood. The T cells were seeded in 384-well microtiter plates and treated with test compounds. […] Finally, HTRF reagents (cAMP Femto Kit, CisBio) were added to the wells, and after 1 h cellular cAMP levels were determined using the ENVISION (Perkin Elmer) plate reader.
The obtained raw data were normalized against the inhibitor control and the neutral control (DMSO) and the normalized data were fitted using Genedata Screener software.

Human T cell = Human T cell IL-2; settings: human T cells

Row | IC50 (human A2A receptors) | IC50 (human A2B receptors) | IC50 (mouse Pan T cells) | IC50 [1] | IC50 (Human T cell) | SMILES
1 | < 100 nM | < 100 nM | < 1000 nM | < 100 nM | < 100 nM | O=C(c1cc2c(cn1)c(Nc1ccc(F)cc1)nn2CC(F)(F)F)N1CCCOCC1 [Compound 10, [3-(4-fluoroanilino)-1-(2,2,2-trifluoroethyl)pyrazolo[4,3-c]pyridin-6-yl]-(1,4-oxazepan-4-yl)methanone]
2 | < 100 nM | < 1000 nM |  |  |  | CC(C)(O)C[C@H]1CCCN1C(=O)c1cc2c(cn1)c(Nc1ccc(F)cn1)nn2CC(F)(F)F [Compound 125, [3-[(5-fluoro-2-pyridyl)amino]-1-(2,2,2-trifluoroethyl)pyrazolo[4,3-c]pyridin-6-yl]-[(2R)-2-(2-hydroxy-2-methyl-propyl)pyrrolidin-1-yl]methanone]

Row | SMILES | IC50 (human A2A receptors) | IC50 (human A2B receptors) | IC50 (mouse Pan T cells) | IC50 [1] | IC50 (Human T cell)
3 | O=C(c1cc2c(cn1)c(Nc1ccccn1)nn2CC(F)(F)F)N1[C@@H]2CC[C@H]1C[C@@H](O)C2 [Compound 127, (3-endo-hydroxy-8-azabicyclo[3.2.1]octan-8-yl)-[3-(2-pyridylamino)-1-(2,2,2-trifluoroethyl)pyrazolo[4,3-c]pyridin-6-yl]methanone] | < 100 nM | < 100 nM |  |  | 
